Among the data in BindingDB's records for doi:10.1016/j.bmcl.2012.09.081 (2012) are IC50 values, retold here.

A short description of this assay: Inhibition of tobacco hornworm V-ATPase c subunit.

One may read the IC50 as the concentration that gives 50% inhibition.

`CNC(=O)O[C@@H](CC(C)C)c1nc([C@H]2OC(=O)/C(C)=C/C/C(C)=C/[C@@H](OC(=O)c3ccc(C4(C(F)(F)F)N=N4)cc3)[C@@H](C)\C=C(C)/C=C(C)\C=C\[C@@H](OC(=O)c3ccc(C4(C(F)(F)F)N=N4)cc3)[C@H](C)[C@H](OC)/C(C)=C/C=C/[C@@H]2C)cs1` had an IC50 of 600 nM.
